From ChEMBL document CHEMBL1149774, “Synthesis of N-(5,7-diamino-3-phenyl-quinoxalin-2-yl)-3,4,5-substituted anilines and N-[4[(5,7-diamino-3-phenylquinoxalin-2-yl)amino]benzoyl]-l-glutamic acid diethyl ester: evaluation of in vitro anti-cancer and anti-folate activities” (Eur J Med Chem, 2008)
pKi: −log10 of the molar value.

Columns and labels:
[1] = test system: HOP-92; assay: Growth inhibition of human HOP92 cells after 48 hrs by SRB staining method; type: functional; details: HOP-92, 48 h
[2] = test system: NCI-H322M; assay: Growth inhibition of human NCI-H322M cells after 48 hrs by SRB staining method; type: functional
[3] = test system: COLO 205; assay: Growth inhibition of human COLO205 cells after 48 hrs by SRB staining method; type: functional; details: COLO 205, 48 h
[4] = test system: HCC 2998; assay: Growth inhibition of human HCC2998 cells after 48 hrs by SRB staining method; type: functional; details: HCC 2998, 48 h
[5] = test system: HCT-116; assay: Growth inhibition of human HCT116 cells after 48 hrs by SRB staining method; type: functional; details: HCT-116, 48 h
[6] = test system: SNB-75; assay: Growth inhibition of human SNB75 cells after 48 hrs by SRB staining method; type: functional; details: SNB-75, 48 h
[7] = test system: U-251; assay: Growth inhibition of human U251 cells after 48 hrs by SRB staining method; type: functional; details: U-251, 48 h
[8] = test system: SK-MEL-28; assay: Growth inhibition of human SK-MEL-28 cells after 48 hrs by SRB staining method; type: functional; details: SK-MEL-28, 48 h
[9] = test system: OVCAR-3; assay: Growth inhibition of human OVCAR-3 cells after 48 hrs by SRB staining method; type: functional; details: OVCAR-3, 48 h
[10] = test system: OVCAR-5; assay: Growth inhibition of human OVCAR5 cells after 48 hrs by SRB staining method; type: functional; details: OVCAR-5, 48 h
[11] = test system: OVCAR-8; assay: Growth inhibition of human OVCAR8 cells after 48 hrs by SRB staining method; type: functional; details: OVCAR-8, 48 h
[12] = test system: CAKI-1; assay: Growth inhibition of human CAKI1 cells after 48 hrs by SRB staining method; type: functional; details: CAKI-1, 48 h
[13] = test system: TK-10; assay: Growth inhibition of human TK10 cells after 48 hrs by SRB staining method; type: functional; details: TK-10, 48 h
[14] = test system: MDA-MB-231; assay: Growth inhibition of human MDA-MB-231 cells after 48 hrs by SRB staining method; type: functional; details: MDA-MB-231, 48 h
[15] = test system: BT-549; assay: Growth inhibition of human BT549 cells after 48 hrs by SRB staining method; type: functional; details: BT-549, 48 h
[16] = target: T1, Dihydrofolate reductase (Homo sapiens, UniProt P00374); assay: Inhibition of human dihydrofolate reductase
T1 sequence (P00374 whole entry): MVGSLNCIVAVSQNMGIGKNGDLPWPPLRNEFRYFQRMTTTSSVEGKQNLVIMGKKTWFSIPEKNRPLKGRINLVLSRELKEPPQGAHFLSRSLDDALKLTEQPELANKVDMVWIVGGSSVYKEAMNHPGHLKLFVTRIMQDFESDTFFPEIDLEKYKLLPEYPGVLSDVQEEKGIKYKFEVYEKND

[17] = test system: MDA-N; assay: Growth inhibition of human MDA-N cells after 48 hrs by SRB staining method; type: functional
[18] = test system: A549; assay: Growth inhibition of human A549 cells after 48 hrs by SRB staining method; type: functional; details: A549, 48 h
[19] = test system: SW-620; assay: Growth inhibition of human SW620 cells after 48 hrs by SRB staining method; type: functional; details: SW-620, 48 h
[20] = test system: SF-268; assay: Growth inhibition of human SF268 cells after 48 hrs by SRB staining method; type: functional; details: SF-268, 48 h
[21] = test system: CCRF-CEM; assay: Growth inhibition of human CCRF-CEM cells after 48 hrs by SRB staining method; type: functional
[22] = test system: K562; assay: Growth inhibition of human K562 cells after 48 hrs by SRB staining method; type: functional; details: K562, 48 h
[23] = test system: RPMI-8226; assay: Growth inhibition of human RPMI8226 cells after 48 hrs by SRB staining method; type: functional; details: RPMI-8226, 48 h
[24] = test system: SR; assay: Growth inhibition of human SR cells after 48 hrs by SRB staining method; type: functional
[25] = test system: EKVX; assay: Growth inhibition of human EKVX cells after 48 hrs by SRB staining method; type: functional
[26] = target: Thymidylate synthase (Homo sapiens, UniProt P04818)
Sequence of Thymidylate synthase (P04818 whole entry): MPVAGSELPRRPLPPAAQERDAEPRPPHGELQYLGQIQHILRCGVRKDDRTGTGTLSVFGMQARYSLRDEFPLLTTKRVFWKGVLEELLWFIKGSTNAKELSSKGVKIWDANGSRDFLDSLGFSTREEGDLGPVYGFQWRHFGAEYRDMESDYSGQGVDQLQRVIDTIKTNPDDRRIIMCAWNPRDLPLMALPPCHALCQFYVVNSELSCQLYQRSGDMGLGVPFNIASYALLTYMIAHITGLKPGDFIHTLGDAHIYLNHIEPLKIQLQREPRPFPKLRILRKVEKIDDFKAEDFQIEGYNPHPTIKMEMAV
Description: Inhibition of human thymidylate synthase

[27] = read-out: pLC50 (the source's name) (converted)

Compound `COc1ccc(Nc2nc3cc(N)cc(N)c3nc2-c2ccccc2)cc1` has a GI50 [1] of 20 µM, an LC50 [1] greater than 100 µM and a TGI ([1]; read-out: pTGI (converted)) of 52.5 µM. The GI50 [2] was 23.4 µM, the LC50 [2] was greater than 100 µM and the TGI ([2]; read-out: pTGI (converted)) was 83.2 µM. The GI50 [3] was 15.8 µM, the LC50 [3] was 53.7 µM and the TGI ([3]; read-out: pTGI (converted)) was 29.5 µM. It also gave a GI50 [4] of 28.2 µM, an LC50 [4] greater than 100 µM and a TGI ([4]; read-out: pTGI (converted)) greater than 100 µM. It also gave a GI50 [5] of 14.8 µM, an LC50 [5] of 52.5 µM and a TGI ([5]; read-out: pTGI (converted)) of 28.2 µM. For the same compound, the GI50 [6] was 14.5 µM, the LC50 [6] was greater than 100 µM and the TGI ([6]; read-out: pTGI (converted)) was 42.7 µM. For the same compound, the GI50 [7] was 16.2 µM, the LC50 (50% lethal concentration) [7] was 55 µM and the TGI ([7]; read-out: pTGI (converted)) was 29.5 µM. It also gave a GI50 [8] of 17 µM, a CC50 [8, 27] of 55 µM and a TGI ([8]; read-out: pTGI (converted)) of 30.2 µM. For the same compound, the GI50 [9] was 17.4 µM, the LC50 [9] was 79.4 µM and the TGI ([9]; read-out: pTGI (converted)) was 37.2 µM. It also gave a GI50 [10] of 21.4 µM, an LC50 [10] greater than 100 µM and a TGI ([10]; read-out: pTGI (converted)) of 53.7 µM. For the same compound, the GI50 [11] was 13.8 µM, the CC50 [11, 27] was 67.6 µM and the TGI ([11]; read-out: pTGI (converted)) was 30.9 µM. The GI50 [12] was 35.5 µM, the CC50 [12, 27] was greater than 100 µM and the TGI ([12]; read-out: pTGI (converted)) was greater than 100 µM. For the same compound, the GI50 [13] was 16.6 µM, the CC50 [13, 27] was greater than 100 µM and the TGI ([13]; read-out: pTGI (converted)) was 42.7 µM. It also gave a GI50 [14] of 11.5 µM, a CC50 [14, 27] of 55 µM and a TGI ([14]; read-out: pTGI (converted)) of 25.1 µM. It also gave a GI50 [15] of 13.5 µM, a CC50 [15, 27] of 75.9 µM and a TGI ([15]; read-out: pTGI (converted)) of 31.6 µM. For the same compound, the pKi [16] was 5.74, the GI50 [17] was 21.4 µM and the CC50 [17, 27] was 60.3 µM. For the same compound, the TGI ([17]; read-out: pTGI (converted)) was 36.3 µM, the GI50 [18] was 27.5 µM and the CC50 [18, 27] was greater than 100 µM. For the same compound, the TGI ([18]; read-out: pTGI (converted)) was greater than 100 µM, the GI50 [19] was 22.4 µM and the CC50 [19, 27] was 60.3 µM. For the same compound, the TGI ([19]; read-out: pTGI (converted)) was 37.2 µM, the GI50 [20] was 12.9 µM and the CC50 [20, 27] was 72.4 µM. The TGI ([20]; read-out: pTGI (converted)) was 30.9 µM, the GI50 [21] was 12 µM and the CC50 [21, 27] was greater than 100 µM. It also gave a TGI ([21]; read-out: pTGI (converted)) greater than 100 µM, a GI50 [22] of 29.5 µM and a CC50 [22, 27] greater than 100 µM. The TGI ([22]; read-out: pTGI (converted)) was greater than 100 µM, the GI50 [23] was 19.1 µM and the CC50 [23, 27] was greater than 100 µM. It also gave a TGI ([23]; read-out: pTGI (converted)) greater than 100 µM, a GI50 [24] of 19.1 µM and a CC50 [24, 27] greater than 100 µM. It also gave a TGI ([24]; read-out: pTGI (converted)) greater than 100 µM, a GI50 [25] of 25.7 µM and a CC50 [25, 27] greater than 100 µM. It also gave a TGI ([25]; read-out: pTGI (converted)) greater than 100 µM and a pKi [26] of 5.22.
